# Patent US20140031227A1, “HERBICIDAL COMPOSITIONS COMPRISING 4-AMINO-3-CHLORO-5-FLUORO-6-(4-CHLORO-2-FLUORO-3-METHOXYPHENYL) PYRIDINE-2-CARBOXYLIC ACID OR A DERIVATIVE THEREOF AND GLYPHOSATE OR GLUFOSINATE” (DOW AGROSCIENCES LLC, priority 2012, published 2014)
# Tests used:
# Format in all cases: in vivo
# Details in all cases: Compound A n-Butyl Ester alone, 16 gae/ha
# [1] = tested on: ECHCG (Echinochloa crusgalli (L.) Beauv., barnyardgrass); experiment: Example I postemergence foliar-applied mixtures, direct seeded rice weeds, greenhouse: ECHCG
# Protocol: (§1) Seeds or nutlets of the desired test plant species were planted in a soil matrix prepared by mixing a loam or sandy loam soil (e.g., 28.6 percent silt, 18.8 percent clay, and 52.6 percent sand, with a pH of about 5.8 and an organic matter content of about 1.8 percent) and calcareous grit in an 80 to 20 ratio. The soil matrix was contained in plastic pots with a volume of 1 quart and a surface area of 83.6 square centimeters (cm^2). […] The plants were grown for 8-22 days in a greenhouse with an approximate 14 hr photoperiod which was maintained at about 29° C. during the day and 26° C. during the night. Nutrients (Peters Excel® 15-5-15 5-Ca 2-Mg and iron chelate) were applied in the irrigation solution as needed and water was added on a regular basis. Supplemental lighting was provided with overhead metal halide 1000-Watt lamps as necessary. The plants were employed for testing when they reached the first through fourth true leaf stage.
# (§2) Treatments consisted of the acid or esters of 4-amino-3-chloro-5-fluoro-6-(4-chloro-2-fluoro-3-methoxy-phenyl)pyridine-2-carboxylic acid (Compound A), each formulated as an SC (suspension concentrate), and various herbicidal components alone and in combination. Forms of compound A were applied on an acid equivalent basis.
# (§3) For treatments comprised of formulated compounds, measured amounts of compounds were placed individually in 25 mL glass vials and diluted in a volume of 1.25% (v/v) Agri-Dex® crop oil concentrated to obtain 12× stock solutions. […] Application solutions were prepared by adding an appropriate amount of each stock solution (e.g., 1 mL) and diluted to the appropriate final concentrations with the addition of 10 mL of an aqueous mixture of 1.25% (v/v) crop oil concentrate so that the final spray solutions contained 1.25+/−0.05% (v/v) crop oil concentrate.
# (§4) All stock solutions and applications solutions were visually inspected for compound compatibility prior to application. Spray solutions were applied to the plant material with an overhead Mandel track sprayer equipped with a 8002E nozzles calibrated to deliver 187 L/ha over an application area of 0.503 m^2 at a spray height of 18 to 20 inches (46 to 50 cm) above average plant canopy height. Control plants were sprayed in the same manner with the solvent blank.
# (§5) The treated plants and control plants were placed in a greenhouse as described above and watered by sub-irrigation to prevent wash-off of the test compounds. After approximately 3 weeks, the condition of the test plants as compared with that of the untreated plants was determined visually and scored on a scale of 0 to 100 percent where 0 corresponds to no injury or growth inhibition and 100 corresponds to complete kill.
# (§6) Colby's equation was used to determine the herbicidal effects expected from the mixtures (Colby, S. R. 1967. Calculation of the synergistic and antagonistic response of herbicide combinations. Weeds 15:20-22.).
# [2] = tested on: LEFCH (Leptochloa chinensis (L.) Nees, Chinese sprangletop); experiment: Example I postemergence foliar-applied mixtures, direct seeded rice weeds, greenhouse: LEFCH
# Protocol: as §1, §2, §3, §4, §5, §6
# [3] = tested on: IPOHE (Ipomoea hederacea Jacq., ivyleaf morningglory); experiment: Example I postemergence foliar-applied mixtures, direct seeded rice weeds, greenhouse: IPOHE
# Protocol: as §1, §2, §3, §4, §5, §6
smiles,measurement,setting,value
CCCCOC(=O)c1nc(-c2ccc(Cl)c(OC)c2F)c(F)c(N)c1Cl [Compound A n-Butyl Ester],Visual Weed Control (%) - 20 DAA ECHCG Obs,[1],65%
same,Visual Weed Control (%) - 20 DAA LEFCH Obs,[2],10%
same,Visual Weed Control (%) - 20 DAA IPOHE Obs,[3],15%
